Data set [1] is described as follows: Permeability in MDCK-MDR1 cells at 5 uM after 1 hr by LC-MS/MS analysis. The format is ADME, cell-based, Canis lupus familiaris. The following applies: dog, read-out: permeability.
The nature of data set [2]: Metabolic stability in rat liver microsomes assessed as metabolized drug level after 30 mins in presence of NADPH by LC-MS/MS analysis. The data set is classed as ADME, Microsome. The conditions noted are these: read-out: Drug metabolism. Background: Liver microsomes are a subcellular fraction often used to study metabolism.
Data set [3] can be described thus: Metabolic stability in mouse liver microsomes assessed as metabolized drug level after 30 mins in presence of NADPH by LC-MS/MS analysis. The data set is classed as ADME, Microsome. The conditions noted are these: read-out: Drug metabolism.
The nature of data set [4]: Metabolic stability in human pooled liver microsomes assessed as metabolized drug level after 30 mins in presence of NADPH by LC-MS/MS analysis. The data set is classed as ADME, Microsome. The conditions noted are these: read-out: Drug metabolism.
The nature of data set [5]: Metabolic stability in dog liver microsomes assessed as metabolized drug level after 30 mins in presence of NADPH by LC-MS/MS analysis. The following applies: read-out: Drug metabolism. The data set is classed as ADME, Canis lupus familiaris, Microsome.
Data set [6] can be described thus: Drug level in PDAPP V717F transgenic mouse brain at 30 mg/kg, sc. The format is ADME, organism-based. The following applies: in vivo, read-out: Ct.
A short description of data set [7]: Ratio of unbound fraction in PDAPP V717F transgenic mouse brain to plasma at 10 mg/kg, sc. The data set is classed as ADME, organism-based. The following applies: read-out: K(p,uu,brain).
A short description of data set [8]: Drug level in PDAPP V717F transgenic mouse plasma assessed as unbound fraction at 100 mg/kg, sc. The data set is classed as ADME, organism-based. The conditions noted are these: in vivo.
A short description of data set [9]: Drug level in PDAPP V717F transgenic mouse plasma at 30 mg/kg, sc. The data set is classed as ADME, organism-based. The following applies: in vivo.
A short description of data set [10]: Drug level in PDAPP V717F transgenic mouse brain at 100 mg/kg, sc. The data set is classed as ADME, organism-based. The conditions noted are these: in vivo, read-out: Ct.
Data set [11] can be described thus: Drug level in PDAPP V717F transgenic mouse plasma at 10 mg/kg, sc. The data set is classed as ADME, organism-based. The following applies: in vivo.
A short description of data set [12]: Ratio of unbound fraction in PDAPP V717F transgenic mouse brain to plasma at 100 mg/kg, sc. The data set is classed as ADME, organism-based. The following applies: read-out: K(p,uu,brain).
Data set [13] in a line: Drug level in PDAPP V717F transgenic mouse plasma assessed as unbound fraction at 30 mg/kg, sc. The format is ADME, organism-based. The conditions noted are these: in vivo.
Data set [14] can be described thus: Drug level in PDAPP V717F transgenic mouse plasma at 100 mg/kg, sc. The data set is classed as ADME, organism-based. The conditions noted are these: in vivo.
Data set [15] in a line: Drug level in PDAPP V717F transgenic mouse plasma assessed as unbound fraction at 10 mg/kg, sc. The data set is classed as ADME, organism-based. The following applies: in vivo.
A short description of data set [16]: Ratio of unbound fraction in PDAPP V717F transgenic mouse brain to plasma at 30 mg/kg, sc. The format is ADME, organism-based. The conditions noted are these: read-out: K(p,uu,brain).
Data set [17] is described as follows: Drug level in PDAPP V717F transgenic mouse brain at 10 mg/kg, sc. The data set is classed as ADME, organism-based. The following applies: in vivo, read-out: Ct.

The source of these data is ChEMBL document CHEMBL4613225, “Preparation and biological evaluation of BACE1 inhibitors: Leveraging trans-cyclopropyl moieties as ligand efficient conformational constraints” (Bioorg Med Chem, 2020).

`C[C@@H]1C[C@H]1CNC(=O)[C@@H]1C[C@H]1[C@]12CN(c3ncccn3)C[C@H]1CSC(N)=N2`: the Papp at 1 h, 5 µM in data set [1] amounted to 8 ×10⁻⁶ cm/s. For the same compound, the metabolised at 0.5 h in data set [2] came out at 55%; in data set [3] it was 33%; in data set [4], 13%; in data set [5], 28%.

On to `C[C@@H]1C[C@H]1COC(C)(C)[C@@H]1C[C@H]1[C@]12CN(c3ncccn3)C[C@H]1CSC(N)=N2`, for which the concentration turned out to be 176 nM in [6]; 326 nM in data set [9]; 389 nM in data set [10]; 133 nM in [11]; 815 nM in [14]; 63 nM in data set [17]. Further, in data set [1], the Papp at 1 h, 5 µM was 36 ×10⁻⁶ cm/s. In addition, the results for the Kp uu in [7], in data set [12] and in [16] were 0.18, 0.16 and 0.17, respectively. The metabolised at 0.5 h came to 98% in data set [2], 98% in data set [3], 31% in data set [4] and 79% in data set [5]. The “Cp(f)” value was determined as 102 nM in data set [8], 41 nM in data set [13] and 17 nM in [15].
